molecular target: T1, P2X7 receptor (Homo sapiens, UniProt Q99572); experiment: IL-1β release assay in differentiated THP-1 cells stimulated with BzATP (Example 9); format: cell-based; conditions: 0.1 μM compound (symbols *); differentiated THP-1 cells, BzATP 250 uM; read-out: IL-1β % Inhib. @ 0.3 or 0.1 uM
T1 construct: host or cells: THP-1 cells differentiated with LPS and IFN-γ
T1 sequence (Q99572 1-595): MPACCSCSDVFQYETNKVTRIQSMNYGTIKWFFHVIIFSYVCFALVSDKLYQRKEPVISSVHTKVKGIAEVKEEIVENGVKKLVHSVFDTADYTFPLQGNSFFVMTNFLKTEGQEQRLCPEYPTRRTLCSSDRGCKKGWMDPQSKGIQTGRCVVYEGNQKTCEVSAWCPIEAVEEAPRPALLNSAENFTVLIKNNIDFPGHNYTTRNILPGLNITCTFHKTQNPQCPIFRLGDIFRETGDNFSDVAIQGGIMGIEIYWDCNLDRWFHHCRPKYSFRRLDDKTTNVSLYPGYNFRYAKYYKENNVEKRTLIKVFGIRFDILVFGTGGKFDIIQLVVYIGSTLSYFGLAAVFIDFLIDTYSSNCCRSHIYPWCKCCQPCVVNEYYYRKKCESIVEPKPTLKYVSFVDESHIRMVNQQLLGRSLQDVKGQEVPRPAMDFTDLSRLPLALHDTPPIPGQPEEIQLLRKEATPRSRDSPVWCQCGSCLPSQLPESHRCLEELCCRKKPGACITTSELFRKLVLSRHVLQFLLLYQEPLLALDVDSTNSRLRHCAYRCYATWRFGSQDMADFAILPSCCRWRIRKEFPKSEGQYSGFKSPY
Protocol: THP-1 cells (ATCC Cat #285-IF-100) are plated in 96 well plates at a concentration of 200,000 cells per well and allowed to differentiate in RPMI-1640 media (ATCC Cat #30-2001) containing 10% FBS, 100 IU/mL penicillin, 100 ug/mL streptomycin, 100 ng/mL LPS and 100 ng/mL IFN-γ for 16 hours. Following differentiation, the cells are treated for an additional 2 hours in RPMI-1640 media containing 100 IU/mL penicillin, 100 ug/mL streptomycin and fresh LPS at 100 ng/mL. The cells are then pretreated for 30 minutes with the compound of interest at the appropriate concentration in RPMI media containing 100 IU/mL penicillin, 100 ug/mL streptomycin. Following the pretreatment 2′,3′-O-(4-benzoylbenzoyl)-adenosine 5′-triphosphate (Sigma Aldrich Cat #B6396) is added to a final concentration of 250 uM and the cells are incubated for an additional 45 minutes. 30 uL of cell supernatant is then collected and IL-1β levels determined via ELISA (R&D systems Cat. #HSLB50) according to manufacturer's recommendations using the Tecan Safire plate reader. Background adjusted IL-1β levels of drug treated and non-treated cells are used to calculate the percent inhibition.
The compounds set forth in Table 1 were tested for activity in a cellular model as described herein. Specifically, cells were pretreated with differing amounts of the compound under test and released IL-1β determined as in Example 9, above. Measurements were made and IC50 values, presented in Table 2, below, were determined by fitting the data to a four parameter logistic equation using GraphPad Prism software (GraphPad Software, Inc). The equation may be expressed by the following formula:
Y=Bottom+(Top−Bottom)/(1+10̂((Log EC50−X)*HillSlope))
Where X is the logarithm of concentration, Y is the response and Y starts at Bottom and goes to Top with a sigmoid shape.

Row | inhibition at 0.1 µM [%] | SMILES
1 | 0 to 25 | CCOc1ccccc1CC(=O)Nc1cccc2c(=O)n(CC(C)O)ccc12 (stereo not drawn) [Compound 176]
2 | 0 to 25 | CC(CO)n1ccc2c(NC(=O)c3ccccc3Cl)cccc2c1=O (stereo not drawn) [Compound 95]
3 | 0 to 25 | CCOc1cccc(C(=O)Nc2cccc3c(=O)n(C(C)CO)ccc23)c1 (stereo not drawn) [Compound 93]
4 | 0 to 25 | Cc1cc(C)c(CC(=O)Nc2cccc3c(=O)n(CC(C)(C)O)ccc23)c(C)c1 [Compound 190]
5 | 0 to 25 | CC(CO)n1ccc2c(NC(=O)Cc3ccc4c(c3)OCO4)cccc2c1=O (stereo not drawn) [Compound 113]
6 | 0 to 25 | Cc1ccccc1CC(=O)Nc1cccc2c(=O)n(CC(C)O)ccc12 (stereo not drawn) [Compound 157]
7 | 0 to 25 | CCOc1ccc(C(=O)Nc2cccc3c(=O)n(CC(C)O)ccc23)cc1 (stereo not drawn) [Compound 145]
8 | 0 to 25 | COc1ccc(CC(=O)Nc2cccc3c(=O)n(C(C)CO)ccc23)c(OC)c1 (stereo not drawn) [Compound 120]
9 | 0 to 25 | Cc1cccc(C(=O)Nc2cccc3c(=O)n(CC(C)O)ccc23)c1Cl (stereo not drawn) [Compound 182]
10 | 0 to 25 | Cc1cc(C)cc(CC(=O)Nc2cccc3c(=O)n(C(C)CO)ccc23)c1 (stereo not drawn) [Compound 119]
11 | 26 to 50 | Cc1ccccc1CCC(=O)Nc1cccc2c(=O)n(C(C)CO)ccc12 (stereo not drawn) [Compound 90]
12 | 0 to 25 | CC(CO)n1ccc2c(NC(=O)c3ccc(Cl)cc3Cl)cccc2c1=O (stereo not drawn) [Compound 96]
13 | 0 to 25 | COc1ccccc1CCC(=O)Nc1cccc2c(=O)n(CC3(O)CCCCC3)ccc12 [Compound 87]
14 | 0 to 25 | COc1ccccc1CC(=O)Nc1cccc2c(=O)n(C(C)CO)ccc12 (stereo not drawn) [Compound 107]
15 | 0 to 25 | COc1ccc(C(=O)Nc2cccc3c(=O)n(CC(C)O)ccc23)cc1Cl (stereo not drawn) [Compound 131]
16 | 0 to 25 | COc1ccc(CC(=O)Nc2cccc3c(=O)n(CC(C)O)ccc23)cc1 (stereo not drawn) [Compound 160]
17 | 0 to 25 | Cc1ccc(C(=O)Nc2cccc3c(=O)n(CC4(O)CCCCC4)ccc23)c(C)c1 [Compound 86]
18 | 0 to 25 | CC(CO)n1ccc2c(NC(=O)c3ccc4c(c3)OCCCO4)cccc2c1=O (stereo not drawn) [Compound 117]
19 | 0 to 25 | COc1ccc(C(=O)Nc2cccc3c(=O)n(CC(C)O)ccc23)c(C)c1 (stereo not drawn) [Compound 125]
20 | 0 to 25 | COc1ccc(CC(=O)Nc2cccc3c(=O)n(C(C)CO)ccc23)cc1OC (stereo not drawn) [Compound 109]
21 | 26 to 50 | COc1ccc(CCC(=O)Nc2cccc3c(=O)n(CC(C)O)ccc23)cc1 (stereo not drawn) [Compound 150]
22 | 0 to 25 | COc1cccc(CC(=O)Nc2cccc3c(=O)n(CC(C)O)ccc23)c1 (stereo not drawn) [Compound 158]
23 | 0 to 25 | COc1c(C)cc(C(=O)Nc2cccc3c(=O)n(CC(C)O)ccc23)cc1C (stereo not drawn) [Compound 167]

same assay, conditions: 0.1 μM compound; differentiated THP-1 cells, BzATP 250 uM; "*" symbols; read-out: IL-1β % Inhib. @ 0.3 or 0.1 uM

Row | inhibition at 0.1 µM [%] | SMILES
24 | 0 to 25 | COc1cc(CC(=O)Nc2cccc3c(=O)n(CC(C)(C)O)ccc23)cc(OC)c1 [Compound 219]
25 | 0 to 25 | CC(C)(O)Cn1ccc2c(NC(=O)c3cccc4c3OCCO4)cccc2c1=O [Compound 222]
26 | 0 to 25 | Cc1ccc(CC(=O)Nc2cccc3c(=O)n(CC(C)(C)O)ccc23)cc1 [Compound 216]
27 | 0 to 25 | CC(C)(O)Cn1ccc2c(NC(=O)c3ccc4ccccc4c3)cccc2c1=O [Compound 206]

same assay, conditions: 0.3 μM compound (symbols +); differentiated THP-1 cells, BzATP 250 uM; read-out: IL-1β % Inhib. @ 0.3 or 0.1 uM

Row | inhibition at 0.3 µM [%] | SMILES
28 | 0 to 25 | O=C(Cc1ccc2c(c1)OCCO2)Nc1cccc2c(=O)n(CCO)ccc12 [Compound 63]
29 | 0 to 25 | Cc1ccc(Cl)cc1C(=O)Nc1cccc2c(=O)n(CC3(O)CCCCC3)ccc12 [Compound 52]
30 | 0 to 25 | O=C(CCc1ccc(Cl)cc1)Nc1cccc2c(=O)n(CC3(O)CCCCC3)ccc12 [Compound 49]
31 | 0 to 25 | Cc1cc(C(=O)Nc2cccc3c(=O)n(CC4(O)CCCCC4)ccc23)ccc1Cl [Compound 17]
32 | 0 to 25 | Cc1ccc(Cl)c(C(=O)Nc2cccc3c(=O)n(CC4(O)CCCCC4)ccc23)c1 [Compound 51]
33 | 26 to 50 | O=C(Nc1cccc2c(=O)n(CCO)ccc12)c1ccc(C(F)(F)F)cc1C(F)(F)F [Compound 6]

same assay, conditions: 0.3 μM compound; differentiated THP-1 cells, BzATP 250 uM; "+" symbols; read-out: IL-1β % Inhib. @ 0.3 or 0.1 uM

Row | inhibition at 0.3 µM [%] | SMILES
34 | > 76 | O=C(Cc1ccc(F)c(Cl)c1)Nc1cccc2c(=O)n(CCO)ccc12 [Compound 341]
35 | > 76 | CC(C)C[C@H](CO)n1ccc2c(NC(=O)Cc3ccc(Cl)c(Cl)c3)cccc2c1=O [Compound 275]
36 | > 76 | CC(C)C[C@H](CO)n1ccc2c(NC(=O)[C@@H](C)c3ccc(Cl)cc3)cccc2c1=O [Compound 271]
37 | > 76 | CC(C)(CO)n1ccc2c(NC(=O)Cc3cccc(C(F)(F)F)c3F)cccc2c1=O [Compound 368]
38 | 51 to 75 | C[C@H](C(N)=O)n1ccc2c(NC(=O)Cc3ccc(F)cc3C(F)(F)F)cccc2c1=O [Compound 295]
39 | 0 to 25 | C[C@H](C(N)=O)n1ccc2c(NC(=O)Cc3c(F)cccc3F)cccc2c1=O [Compound 292]
40 | 51 to 75 | CNCCn1ccc2c(NC(=O)Cc3ccc(Cl)c(Cl)c3)cccc2c1=O [Compound 234]
41 | 26 to 50 | C[C@H](C(N)=O)n1ccc2c(NC(=O)Cc3c(F)cccc3C(F)(F)F)cccc2c1=O [Compound 286]
42 | > 76 | CC(C)(CO)n1ccc2c(NC(=O)Cc3ccc(Cl)cc3F)cccc2c1=O [Compound 374]
43 | > 76 | CC(C)(CO)n1ccc2c(NC(=O)Cc3ccc(C(F)(F)F)cc3F)cccc2c1=O [Compound 370]
44 | > 76 | O=C(Cc1ccc(C(F)(F)F)cc1C(F)(F)F)Nc1cccc2c(=O)n(CCO)ccc12 [Compound 230]
45 | > 76 | C[C@H](C(N)=O)n1ccc2c(NC(=O)Cc3ccc(F)c(F)c3F)cccc2c1=O [Compound 379]
46 | 51 to 75 | CC(C)(CO)n1ccc2c(NC(=O)Cc3ccc(Cl)c(Cl)c3)cccc2c1=O [Compound 371]
47 | > 76 | C[C@@H](CO)n1ccc2c(NC(=O)Cc3ccc(Cl)c(Cl)c3)cccc2c1=O [Compound 332]
48 | > 76 | C[C@H](C(N)=O)n1ccc2c(NC(=O)Cc3ccc(C(F)(F)F)cc3C(F)(F)F)cccc2c1=O [Compound 380]
49 | > 76 | O=C(Cc1cccc(C(F)(F)F)c1F)Nc1c(Cl)ccc2c(=O)n(CCO)ccc12 [Compound 387]
50 | > 76 | CC(C)[C@H](CO)n1ccc2c(NC(=O)[C@@H](C)c3ccc(Cl)cc3)cccc2c1=O [Compound 274]
51 | > 76 | CC(C(=O)Nc1cccc2c(=O)n([C@@H](C)C(N)=O)ccc12)c1ccc(Cl)cc1 (stereo partly drawn) [Compound 240]
52 | > 76 | C[C@H](C(=O)Nc1cccc2c(=O)n([C@@H](C(N)=O)c3ccccc3)ccc12)c1ccc(Cl)cc1 [Compound 279, (S)—N-[2-((R)-Carbamoyl-phenyl-methyl)-1-oxo-1,2-dihydro-isoquinolin-5-yl]-2-(4-chloro-phenyl)-propionamide]
53 | 26 to 50 | C[C@H](C(N)=O)n1ccc2c(NC(=O)Cc3ccc(Cl)cc3F)c(Cl)ccc2c1=O [Compound 343]
54 | 0 to 25 | C[C@H](C(N)=O)n1ccc2c(NC(=O)Cc3ccc(Cl)nc3)cccc2c1=O [Compound 312]
55 | > 76 | CC(C)[C@H](C(=O)NC1CC1)n1ccc2c(NC(=O)[C@H](C)c3ccc(Cl)cc3)cccc2c1=O [Compound 282]
56 | 51 to 75 | CC(C(=O)Nc1cccc2c(=O)n(C[C@@H]3CCCN3)ccc12)c1ccc(Cl)cc1 (stereo partly drawn) [Compound 246]

same assay, conditions: THP-1 cells, BzATP 250 uM, IL-1β by ELISA

Row | IC50 [nM] | SMILES
57 | 14.5 | CC(C)[C@H](CO)n1ccc2c(NC(=O)[C@@H](C)c3ccc(Cl)cc3)cccc2c1=O [Compound 274]

— patent US20110092476A1, “Bicycloheteroaryl compounds as P2X7 modulators and uses thereof” (Renovis, Inc., priority 2006, published 2011)
